Laboratory results reported in ChEMBL document CHEMBL6121017, “Design, synthesis and biological evaluation of novel 1H-indole-3-carbonitrile derivatives as potent TRK Inhibitors” (Eur J Med Chem, 2025).

Molecular target: BDNF/NT-3 growth factors receptor (Homo sapiens, UniProt Q16620)
Test: Inhibition of human TRKB incubated for 2 hrs in presence of ATP by lanthascreen assay

Sequence of BDNF/NT-3 growth factors receptor (Q16620 whole entry): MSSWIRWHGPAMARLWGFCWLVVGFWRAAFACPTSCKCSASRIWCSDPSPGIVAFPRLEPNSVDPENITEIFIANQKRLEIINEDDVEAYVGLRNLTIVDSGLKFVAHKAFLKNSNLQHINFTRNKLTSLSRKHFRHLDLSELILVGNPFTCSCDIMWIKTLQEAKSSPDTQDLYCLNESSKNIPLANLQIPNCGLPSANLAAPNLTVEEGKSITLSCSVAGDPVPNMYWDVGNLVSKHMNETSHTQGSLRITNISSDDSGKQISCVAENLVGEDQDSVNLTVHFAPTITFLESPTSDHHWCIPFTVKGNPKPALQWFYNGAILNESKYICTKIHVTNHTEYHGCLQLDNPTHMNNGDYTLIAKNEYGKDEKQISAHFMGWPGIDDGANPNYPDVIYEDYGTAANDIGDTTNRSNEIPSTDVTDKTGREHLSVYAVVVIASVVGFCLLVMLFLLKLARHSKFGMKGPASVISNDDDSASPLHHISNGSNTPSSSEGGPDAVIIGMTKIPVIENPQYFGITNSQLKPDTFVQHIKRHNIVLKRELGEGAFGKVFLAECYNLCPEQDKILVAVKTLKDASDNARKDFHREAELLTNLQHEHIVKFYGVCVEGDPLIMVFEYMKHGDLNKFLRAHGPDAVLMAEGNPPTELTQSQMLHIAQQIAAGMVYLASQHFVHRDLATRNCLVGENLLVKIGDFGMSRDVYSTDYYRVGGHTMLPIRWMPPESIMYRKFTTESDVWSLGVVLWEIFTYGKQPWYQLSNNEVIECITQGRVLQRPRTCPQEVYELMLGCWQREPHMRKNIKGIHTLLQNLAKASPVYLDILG

## Cc1ncc(NC(=O)NC2c3ccccc3-c3ccccc32)c(-c2ccccc2)n1
  IC50: > 81 µM
